{"source": "patent US20250197420A1", "about": "“MACROCYCLIC COMPOUNDS, COMPOSITIONS, AND METHODS OF USING THEREOF” (Sionna Therapeutics Inc., priority 2022, published 2025)", "key": {"[1]": {"biological_target": "T1, Purified recombinant NBD1 (Homo sapiens, UniProt P13569)", "T1 construct": "Purified recombinant NBD1 was produced using previously described methods; made in house", "T1 sequence (P13569 423-646 limits assumed)": "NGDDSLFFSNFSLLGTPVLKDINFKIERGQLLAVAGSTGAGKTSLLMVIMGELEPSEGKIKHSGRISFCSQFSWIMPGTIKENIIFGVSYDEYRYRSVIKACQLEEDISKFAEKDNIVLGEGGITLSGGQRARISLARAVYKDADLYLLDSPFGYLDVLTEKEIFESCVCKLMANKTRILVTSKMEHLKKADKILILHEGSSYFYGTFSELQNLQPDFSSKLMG", "assay": "Aggregation analysis using differential static light scattering (DSLS): thermal stability of NBD1", "type": "binding", "conditions": "NBD1 0.2 mg/ml; Tagg of compound well minus average Tagg of DMSO control wells", "procedure,_shortened": "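Recombinant NBD1 at 0.2 mg/ml in Tris/NaCl/MgCl2 buffer with 2 mM ATP, 2 mM DTT, 1% glycerol, pH 7.6, was incubated with compound and heated at 1 °C/min to 70 °C while static light scattering was monitored. Tagg was taken from the curve inflection point and reported as ΔTagg relative to DMSO controls.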"}, "[2]": {"test_system": "Primary human bronchial epithelial cells from a ΔF508 homozygous CF donor (CF-HBE cells)", "assay": "TECC24 recording of CFTR-mediated transepithelial chloride transport, AUC fold over benchmark VX-809 @10 μM", "type": "cell-based", "conditions": "48 hours incubation, AUC of forskolin-stimulated IEQ", "procedure,_shortened": "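CF-HBE cells on inserts were treated with compound for 48 h at 36.5 °C, then recorded in current-clamp with benzamil 10 μM, forskolin 10 μM, and finally CFTR inhibitor-172 20 μM in pH 7.4 Hepes saline. Equivalent Cl− current AUC between forskolin and inhibitor addition is expressed as a ratio to VX-809 AUC: A <3, B 3–6, C 6–20.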"}}, "data": [{"smiles": "CN1CC(C)(C)OCCC(C)(c2ccccc2)c2cnc([nH]2)-c2cc(ccc2F)Oc2c(F)cc3[nH]ccc3c2CCC1=O", "note": "(stereo not drawn) [Compound 43, 23,29-Difluoro-6,10,10,12-tetramethyl-6-phenyl-9,25-dioxa-3,12,20,31-tetrazapentacyclo[24.3.1.12,5.016,24.017,21]hentriaconta-1(30),2,4,16,18,21,23,26,28-nonaen-13-one]", "values": [{"measurement": "DSLS (ΔTagg)", "setting": "[1]", "result": "A (an ΔTagg value less than or equal to 5 °C is marked “A”)"}, {"measurement": "TECC (test agent AUC divided by VX-809 AUC)", "setting": "[2]", "result": "A (a TECC value less than 3 is marked “A”)"}]}, {"smiles": "CN1CC(C)(C)CCCC(C)(c2cccc(CCC(=O)O)c2)c2nnc([nH]2)-c2cc(ccc2F)Oc2c(F)cc3[nH]ccc3c2CCC1=O", "note": "(stereo not drawn) [Compound 44, 3-[3-(23,29-Difluoro-6,10,10,12-tetramethyl-13-oxo-25-oxa-3,4,12,20,31-pentazapentacyclo[24.3.1.12,5.016,24.017,21]hentriaconta-1(30),2,4,16,18,21,23,26,28-nonaen-6-yl)phenyl]propanoic acid]", "values": [{"measurement": "DSLS (ΔTagg)", "setting": "[1]", "result": "C (a value greater than 10 °C and less than or equal to 25 °C is marked “C”)"}, {"measurement": "TECC (test agent AUC divided by VX-809 AUC)", "setting": "[2]", "result": "C (a value between 6 and 20 is marked “C”)"}]}, {"smiles": "CC1(C)CCC(C)(c2cccc(CCC(=O)O)c2)c2cnc([nH]2)-c2cc(ccc2F)Oc2c(F)cc3[nH]ccc3c2CCNC(=O)OC1", "note": "(stereo not drawn) [Compound 45, 3-[3-(23,29-Difluoro-6,9,9-trimethyl-12-oxo-11,25-dioxa-3,13,20,31-tetrazapentacyclo[24.3.1.12,5.016,24.017,21]hentriaconta-1(30),2,4,16(24),17(21),18,22,26,28-nonaen-6-yl)phenyl]propanoic acid]", "values": [{"measurement": "DSLS (ΔTagg)", "setting": "[1]", "result": "C (a value greater than 10 °C and less than or equal to 25 °C is marked “C”)"}, {"measurement": "TECC (test agent AUC divided by VX-809 AUC)", "setting": "[2]", "result": "B (a value between 3 and 6 is marked “B”)"}]}, {"smiles": "CN1CC(C)(C)CCCC(C)(c2cccc(CCc3nnn[nH]3)c2)c2cnc([nH]2)-c2cc(ccc2F)Oc2c(F)cc3[nH]ccc3c2CCC1=O", "note": "(stereo not drawn) [Compound 52, 23,29-Difluoro-6,10,10,12-tetramethyl-6-[3-[2-(1H-tetrazol-5-yl)ethyl]phenyl]-25-oxa-3,12,20,31-tetrazapentacyclo[24.3.1.12,5.016,24.017,21]-hentriaconta-1(30),2,4,16,18,21,23,26,28-nonaen-13-one]", "values": [{"measurement": "DSLS (ΔTagg)", "setting": "[1]", "result": "C (a value greater than 10 °C and less than or equal to 25 °C is marked “C”)"}, {"measurement": "TECC (test agent AUC divided by VX-809 AUC)", "setting": "[2]", "result": "A (a TECC value less than 3 is marked “A”)"}]}, {"smiles": "CN1CC(C)(C)CCCCC(C)(c2cccc(CCC(=O)O)c2)c2cnc([nH]2)-c2cc(ccc2F)Oc2c(F)cc3[nH]ccc3c2CCC1=O", "note": "(stereo not drawn) [Compound 61, 3-[3-(24,30-Difluoro-6,11,11,13-tetramethyl-14-oxo-26-oxa-3,13,21,32-tetrazapentacyclo[25.3.1.12,5.017,25.018,22]dotriaconta-1(31),2,4,17,19,22,24,27,29-nonaen-6-yl)phenyl]propanoic acid]", "values": [{"measurement": "DSLS (ΔTagg)", "setting": "[1]", "result": "C (a value greater than 10 °C and less than or equal to 25 °C is marked “C”)"}, {"measurement": "TECC (test agent AUC divided by VX-809 AUC)", "setting": "[2]", "result": "B (a value between 3 and 6 is marked “B”)"}]}, {"smiles": "CN1CC(C)(C)CCCCC(C)(c2ccccc2)c2cnc([nH]2)-c2cc(ccc2F)Oc2c(F)cc3[nH]ccc3c2CCC1=O", "note": "(stereo not drawn) [Compound 62, 24,30-Difluoro-6,11,11,13-tetramethyl-6-phenyl-26-oxa-3,13,21,32-tetrazapentacyclo[25.3.1.12,5.017,25.018,22]dotriaconta-1(31),2,4,17,19,22,24,27,29-nonaen-14-one]", "values": [{"measurement": "DSLS (ΔTagg)", "setting": "[1]", "result": "A (an ΔTagg value less than or equal to 5 °C is marked “A”)"}, {"measurement": "TECC (test agent AUC divided by VX-809 AUC)", "setting": "[2]", "result": "A (a TECC value less than 3 is marked “A”)"}]}, {"smiles": "CN1CC(C)(C)CCCC(C)(c2ccc(CC(=O)O)cc2)c2cnc([nH]2)-c2cc(ccc2F)Oc2c(F)cc3[nH]ccc3c2CCC1=O", "note": "(stereo not drawn) [Compound 63, 2-[4-(23,29-Difluoro-6,10,10,12-tetramethyl-13-oxo-25-oxa-3,12,20,31-tetrazapentacyclo[24.3.1.12,5.016,24.017,21]hentriaconta-1(30),2,4,16,18,21,23,26,28-nonaen-6-yl)phenyl]acetic acid]", "values": [{"measurement": "DSLS (ΔTagg)", "setting": "[1]", "result": "B (a value above 5 °C and less than or equal to 10 °C is marked “B”)"}, {"measurement": "TECC (test agent AUC divided by VX-809 AUC)", "setting": "[2]", "result": "A (a TECC value less than 3 is marked “A”)"}]}, {"smiles": "CN1CCCCC(C)(c2cccc(CCC(=O)O)c2)c2cnc([nH]2)-c2cc(ccc2F)Oc2c(F)cc3[nH]ccc3c2CC1=O", "note": "(stereo not drawn) [Compound 68, 3-[3-(21,27-Difluoro-6,11-dimethyl-12-oxo-23-oxa-3,11,18,29-tetrazapentacyclo[22.3.1.12,5.014,22.015,19]nonacosa-1(28),2,4,14,16,19,21,24,26-nonaen-6-yl)phenyl]propanoic acid]", "values": [{"measurement": "DSLS (ΔTagg)", "setting": "[1]", "result": "B (a value above 5 °C and less than or equal to 10 °C is marked “B”)"}, {"measurement": "TECC (test agent AUC divided by VX-809 AUC)", "setting": "[2]", "result": "A (a TECC value less than 3 is marked “A”)"}]}, {"smiles": "CN1CC(C)(C)CCCC(C)(c2cccc(CCC(=O)O)c2)c2cnc([nH]2)-c2cc(ccc2F)Oc2c(F)c(F)c3[nH]ccc3c2CCC1=O", "note": "(stereo not drawn) [Compound 70, 3-[3-(22,23,29-Trifluoro-6,10,10,12-tetramethyl-13-oxo-25-oxa-3,12,20,31-tetrazapentacyclo[24.3.1.12,5.016,24.017,21]hentriaconta-1(30),2,4,16,18,21,23,26,28-nonaen-6-yl)phenyl]propanoic acid]", "values": [{"measurement": "DSLS (ΔTagg)", "setting": "[1]", "result": "C (a value greater than 10 °C and less than or equal to 25 °C is marked “C”)"}, {"measurement": "TECC (test agent AUC divided by VX-809 AUC)", "setting": "[2]", "result": "A (a TECC value less than 3 is marked “A”)"}]}, {"smiles": "CN1CC(C)(C)CCCC(C)(c2ccccc2)c2cnc([nH]2)-c2cc(ccc2F)Oc2c(F)c(F)c3[nH]ccc3c2CCC1=O", "note": "(stereo not drawn) [Compound 71, 22,23,29-Trifluoro-6,10,10,12-tetramethyl-6-phenyl-25-oxa-3,12,20,31-tetrazapentacyclo[24.3.1.12,5.016,24.017,21]hentriaconta-1(30),2,4,16,18,21,23,26,28-nonaen-13-one]", "values": [{"measurement": "DSLS (ΔTagg)", "setting": "[1]", "result": "A (an ΔTagg value less than or equal to 5 °C is marked “A”)"}, {"measurement": "TECC (test agent AUC divided by VX-809 AUC)", "setting": "[2]", "result": "A (a TECC value less than 3 is marked “A”)"}]}, {"smiles": "CN1Cc2c(c(F)cc3[nH]ccc23)Oc2ccc(F)c(c2)-c2ncc([nH]2)C(C)(c2cccc(CCC(=O)O)c2)CCCOCC(C)(C)C1=O", "note": "(stereo not drawn) [Compound 73, 3-[3-(23,29-difluoro-6,12,12,14-tetramethyl-13-oxo-10,25-dioxa-3,14,20,31-tetrazapentacyclo[24.3.1.12,5.016,24.017,21]hentriaconta-1(30),2,4,16,18,21,23,26,28-nonaen-6-yl)phenyl]propanoic acid]", "values": [{"measurement": "DSLS (ΔTagg)", "setting": "[1]", "result": "C (a value greater than 10 °C and less than or equal to 25 °C is marked “C”)"}, {"measurement": "TECC (test agent AUC divided by VX-809 AUC)", "setting": "[2]", "result": "B (a value between 3 and 6 is marked “B”)"}]}, {"smiles": "CN1Cc2c(c(F)cc3[nH]ccc23)Oc2ccc(F)c(c2)-c2ncc([nH]2)C(C)(c2ccccc2)CCCOCC(C)(C)C1=O", "note": "(stereo not drawn) [Compound 74, 23,29-difluoro-6,12,12,14-tetramethyl-6-phenyl-10,25-dioxa-3,14,20,31-tetrazapentacyclo[24.3.1.12,5.016,24.017,21]hentriaconta-1(30),2,4,16,18,21,23,26,28-nonaen-13-one]", "values": [{"measurement": "DSLS (ΔTagg)", "setting": "[1]", "result": "A (an ΔTagg value less than or equal to 5 °C is marked “A”)"}, {"measurement": "TECC (test agent AUC divided by VX-809 AUC)", "setting": "[2]", "result": "A (a TECC value less than 3 is marked “A”)"}]}, {"smiles": "CC1(c2cccc(CCC(=O)O)c2F)CCCCOC(=O)NCCc2c(c(F)cc3[nH]ccc23)Oc2ccc(F)c(c2)-c2ncc1[nH]2", "note": "(stereo not drawn) [Compound 80, 3-[3-(23,29-Difluoro-6-methyl-12-oxo-11,25-dioxa-3,13,20,31-tetrazapentacyclo[24.3.1.12,5.016,24.017,21]hentriaconta-1(30),2,4,16,18,21,23,26,28-nonaen-6-yl)-2-fluoro-phenyl]propanoic acid]", "values": [{"measurement": "DSLS (ΔTagg)", "setting": "[1]", "result": "C (a value greater than 10 °C and less than or equal to 25 °C is marked “C”)"}, {"measurement": "TECC (test agent AUC divided by VX-809 AUC)", "setting": "[2]", "result": "B (a value between 3 and 6 is marked “B”)"}]}, {"smiles": "CC1(c2cccc(CCC(=O)O)c2)CNC(=O)OCCCCc2c(c(F)cc3[nH]ccc23)Oc2ccc(F)c(c2)-c2ncc1[nH]2", "note": "(stereo not drawn) [Compound 83, 3-[3-(22,28-Difluoro-6-methyl-9-oxo-10,24-dioxa-3,8,19,30-tetrazapentacyclo[23.3.1.12,5.015,23.016,20]triaconta-1(29),2,4,15,17,20,22,25,27-nonaen-6-yl)phenyl]propanoic acid]", "values": [{"measurement": "DSLS (ΔTagg)", "setting": "[1]", "result": "A (an ΔTagg value less than or equal to 5 °C is marked “A”)"}, {"measurement": "TECC (test agent AUC divided by VX-809 AUC)", "setting": "[2]", "result": "A (a TECC value less than 3 is marked “A”)"}]}, {"smiles": "CN1CCCc2c(c(F)cc3[nH]ccc23)Oc2ccc(F)c(c2)-c2ncc([nH]2)C(C)(c2cccc(CCC(=O)O)c2)CCCOC1=O", "note": "(stereo not drawn) [Compound 84, 3-[3-(23,29-Difluoro-6,12-dimethyl-11-oxo-10,25-dioxa-3,12,20,31-tetrazapentacyclo[24.3.1.12,5.016,24.017,21]hentriaconta-1(30),2,4,16(24),17(21),18,22,26,28-nonaen-6-yl)phenyl]propanoic acid]", "values": [{"measurement": "DSLS (ΔTagg)", "setting": "[1]", "result": "C (a value greater than 10 °C and less than or equal to 25 °C is marked “C”)"}, {"measurement": "TECC (test agent AUC divided by VX-809 AUC)", "setting": "[2]", "result": "B (a value between 3 and 6 is marked “B”)"}]}]}
